Measured values from PubChem BioAssay (NCI).
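Exposure lasted 48 hours, with cells grown in 96-well plates and compounds tested at five concentrations. TGI denotes the concentration required for complete inhibition of growth.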

Experiments:
Test in all cases: NCI tumour cell line growth inhibition, 48 h
[1] = system: M19-MEL melanoma
[2] = system: SF-295 CNS
[3] = system: OVCAR-3 ovarian
[4] = system: DLD-1 colon
[5] = system: IGROV1 ovarian
[6] = system: EKVX NSCLC
[7] = system: A498 renal
[8] = system: SF-268 CNS
[9] = system: SR leukemia
[10] = system: KM12 colon
[11] = system: HOP-62 NSCLC
[12] = system: OVCAR-5 ovarian
[13] = system: LXFL 529 NSCLC
[14] = system: RXF 393 renal
[15] = system: NCI-H522 lung
[16] = system: SF-539 CNS
[17] = system: KM20L2 colon
[18] = system: SW-620 colon
[19] = system: SNB-19 CNS
[20] = system: U251 CNS
[21] = system: HOP-18 NSCLC
[22] = system: OVCAR-8 ovarian
[23] = system: RXF-631 renal
[24] = system: SK-OV-3 ovarian
[25] = system: HT29 colon
[26] = system: K-562 leukemia
[27] = system: CAKI-1 renal
[28] = system: HCT-116 colon
[29] = system: MALME-3M melanoma
[30] = system: MOLT-4 leukemia
[31] = system: UACC-257 melanoma
[32] = system: SK-MEL-2 melanoma
[33] = system: HL-60(TB) leukemia
[34] = system: SNB-75 CNS
[35] = system: CCRF-CEM leukemia
[36] = system: HCC-2998 colon
[37] = system: OVCAR-4 ovarian
[38] = system: NCI-H23 lung
[39] = system: HCT-15 colon
[40] = system: SK-MEL-28 melanoma
[41] = system: LOX IMVI melanoma
[42] = system: TK-10 renal
[43] = system: NCI-H460 lung
[44] = system: SK-MEL-5 melanoma
[45] = system: M14 melanoma
[46] = system: NCI-H226 lung
[47] = system: HOP-92 NSCLC
[48] = system: DMS 114 small cell lung
[49] = system: UACC-62 melanoma
[50] = system: UO-31 renal
[51] = system: 786-0 renal
[52] = system: SNB-78 CNS
[53] = system: COLO 205 colon
[54] = system: DMS 273 small cell lung
[55] = system: SN12C renal
[56] = system: XF 498 CNS
[57] = system: RPMI-8226 leukemia
[58] = system: A549 NSCLC
[59] = system: ACHN renal

Cc1cccc2cc3cccc(C(=O)NCCN(C)C)c3nc12 was tested, and the TGI [1] was 0.847 µM, the TGI [2] was 1.74 µM and the TGI [3] was 5.38 µM. The TGI [4] was 5.11 µM, the TGI [5] was > 38.8 µM and the TGI [6] was 1.69 µM. It also gave a TGI [7] of 0.192 µM, a TGI [8] of 3.84 µM and a TGI [9] of 0.118 µM. The TGI [10] was 6.12 µM, the TGI [11] was 0.502 µM and the TGI [12] was 1.63 µM. It also gave a TGI [13] of 10.6 µM, a TGI [14] of 0.931 µM and a TGI [15] of 1.19 µM. For the same compound, the TGI [16] was 1.61 µM, the TGI [17] was 5.11 µM and the TGI [18] was 10.5 µM. The TGI [19] was 6.06 µM, the TGI [20] was 2.15 µM and the TGI [21] was 9.35 µM. For the same compound, the TGI [22] was 5.58 µM, the TGI [23] was 27.7 µM and the TGI [24] was 0.619 µM. For the same compound, the TGI [25] was 3.94 µM, the TGI [26] was 11.3 µM and the TGI [27] was 0.327 µM. For the same compound, the TGI [28] was 1.54 µM, the TGI [29] was 1.11 µM and the TGI [30] was 0.344 µM. It also gave a TGI [31] of 1.46 µM, a TGI [32] of 1.85 µM and a TGI [33] of 1.15 µM. The TGI [34] was 0.825 µM, the TGI [35] was 3.53 µM and the TGI [36] was 1.48 µM. For the same compound, the TGI [37] was 2.32 µM, the TGI [38] was 1.17 µM and the TGI [39] was 1.5 µM. It also gave a TGI [40] of 2.21 µM, a TGI [41] of 0.568 µM and a TGI [42] of 7.88 µM. For the same compound, the TGI [43] was 0.312 µM, the TGI [44] was 0.825 µM and the TGI [45] was 2.43 µM. The TGI [46] was 0.343 µM, the TGI [47] was 1.38 µM and the TGI [48] was 1.02 µM. The TGI [49] was 0.386 µM, the TGI [50] was 0.552 µM and the TGI [51] was 11.5 µM. It also gave a TGI [52] of 11.4 µM, a TGI [53] of 1.75 µM and a TGI [54] of 0.926 µM. For the same compound, the TGI [55] was 1.02 µM.
With COc1ccc(-c2cc(=O)c3ccc(F)cc3[nH]2)cc1 the TGI [1] was > 100 µM, the TGI [2] was > 100 µM and the TGI [3] was > 100 µM. The TGI [4] was > 100 µM, the TGI [5] was > 100 µM and the TGI [6] was > 100 µM. The TGI [56] was > 100 µM, the TGI [8] was > 100 µM and the TGI [9] was > 100 µM. For the same compound, the TGI [10] was > 100 µM, the TGI [11] was > 100 µM and the TGI [12] was > 100 µM. For the same compound, the TGI [13] was > 100 µM, the TGI [14] was > 100 µM and the TGI [15] was > 100 µM. For the same compound, the TGI [16] was > 100 µM, the TGI [17] was > 100 µM and the TGI [18] was > 100 µM. The TGI [19] was > 100 µM, the TGI [21] was > 100 µM and the TGI [22] was > 100 µM. The TGI [23] was > 100 µM, the TGI [24] was > 100 µM and the TGI [25] was > 100 µM. The TGI [26] was > 100 µM, the TGI [28] was > 100 µM and the TGI [57] was > 100 µM. The TGI [29] was > 100 µM, the TGI [30] was > 100 µM and the TGI [31] was > 100 µM. The TGI [33] was > 100 µM, the TGI [34] was > 100 µM and the TGI [35] was > 100 µM. The TGI [36] was > 100 µM, the TGI [37] was > 100 µM and the TGI [38] was > 100 µM. The TGI [58] was > 100 µM, the TGI [40] was > 100 µM and the TGI [41] was > 100 µM. The TGI [59] was > 100 µM, the TGI [42] was > 100 µM and the TGI [43] was > 100 µM. For the same compound, the TGI [44] was > 100 µM, the TGI [45] was > 100 µM and the TGI [46] was > 100 µM. For the same compound, the TGI [47] was > 100 µM, the TGI [48] was > 100 µM and the TGI [49] was > 100 µM. For the same compound, the TGI [50] was > 100 µM, the TGI [51] was > 100 µM and the TGI [52] was > 100 µM. The TGI [53] was > 100 µM and the TGI [55] was > 100 µM.
